# Source: ChEMBL document CHEMBL1671626, “In vitro profiling of ceftaroline against a collection of recent bacterial clinical isolates from across the United States” (2008)
# What was measured:
# Type in all cases: functional
# [1] = tested on: Staphylococcus aureus; assay: Antibacterial activity against methicillin-resistant Staphylococcus aureus assessed as resistant isolates by CLSI M7-A7 broth microdilution method
# [2] = tested on: Streptococcus viridans; assay: Antibacterial activity against penicillin-nonsusceptible Streptococcus viridans by CLSI M7-A7 broth microdilution method
# [3] = tested on: Proteus mirabilis; assay: Antibacterial activity against ceftazidime-susceptible Proteus mirabilis by CLSI M7-A7 broth microdilution method
# [4] = tested on: Staphylococcus aureus; assay: Antibacterial activity against coagulase-negative and oxacillin-susceptible Staphylococcus aureus assessed as susceptible isolates by CLSI M7-A7 broth microdilution method
# [5] = tested on: Enterobacter cloacae; assay: Antibacterial activity against ceftazidime-susceptible Enterobacter cloacae by CLSI M7-A7 broth microdilution method
# [6] = tested on: Streptococcus viridans; assay: Antibacterial activity against penicillin-susceptible Streptococcus viridans by CLSI M7-A7 broth microdilution method
# [7] = tested on: Citrobacter freundii; assay: Antibacterial activity against ceftazidime-nonsusceptible Citrobacter freundii assessed as susceptible isolates by CLSI M7-A7 broth microdilution method
# [8] = tested on: Staphylococcus aureus; assay: Antibacterial activity against methicillin-resistant Staphylococcus aureus by CLSI M7-A7 broth microdilution method
# [9] = tested on: Enterobacteriaceae; assay: Antibacterial activity against ceftazidime-susceptible Enterobacteriaceae assessed as resistant isolates by CLSI M7-A7 broth microdilution method
# [10] = tested on: Klebsiella pneumoniae; assay: Antibacterial activity against ceftazidime-susceptible Klebsiella pneumoniae by CLSI M7-A7 broth microdilution method
# [11] = tested on: Enterobacteriaceae; assay: Antibacterial activity against ceftazidime-nonsusceptible Enterobacteriaceae assessed as susceptible isolates by CLSI M7-A7 broth microdilution method
# [12] = tested on: Streptococcus pneumoniae; assay: Antibacterial activity against penicillin-susceptible Streptococcus pneumoniae assessed as resistant isolates by CLSI M7-A7 broth microdilution method
# [13] = tested on: Enterobacter cloacae; assay: Antibacterial activity against ceftazidime-nonsusceptible Enterobacter cloacae by CLSI M7-A7 broth microdilution method
# [14] = tested on: Enterobacteriaceae; assay: Antibacterial activity against ceftazidime-susceptible Enterobacteriaceae by CLSI M7-A7 broth microdilution method
# [15] = tested on: Enterobacter cloacae; assay: Antibacterial activity against ceftazidime-susceptible Enterobacter cloacae assessed as susceptible isolates by CLSI M7-A7 broth microdilution method
# [16] = tested on: Providencia sp.; assay: Antibacterial activity against ceftazidime-susceptible Providencia sp. by CLSI M7-A7 broth microdilution method
# [17] = tested on: Proteus mirabilis; assay: Antibacterial activity against ceftazidime-susceptible Proteus mirabilis assessed as resistant isolates by CLSI M7-A7 broth microdilution method
# [18] = tested on: Acinetobacter; assay: Antibacterial activity against imipenem-susceptible Acinetobacter assessed as susceptible isolates by CLSI M7-A7 broth microdilution method
# [19] = tested on: Acinetobacter; assay: Antibacterial activity against imipenem-susceptible Acinetobacter by CLSI M7-A7 broth microdilution method
# [20] = tested on: Streptococcus viridans; assay: Antibacterial activity against penicillin-susceptible Streptococcus viridans assessed as susceptible isolates by CLSI M7-A7 broth microdilution method
# [21] = tested on: Serratia marcescens; assay: Antibacterial activity against ceftazidime-susceptible Serratia marcescens assessed as resistant isolates by CLSI M7-A7 broth microdilution method
# [22] = tested on: Acinetobacter; assay: Antibacterial activity against multidrug-resistant Acinetobacter by CLSI M7-A7 broth microdilution method
# [23] = tested on: Enterobacteriaceae; assay: Antibacterial activity against ceftazidime-nonsusceptible Enterobacteriaceae by CLSI M7-A7 broth microdilution method
# [24] = tested on: Escherichia coli; assay: Antibacterial activity against ceftazidime-susceptible Escherichia coli assessed as resistant isolates by CLSI M7-A7 broth microdilution method
# [25] = tested on: Pasteurella multocida; assay: Antibacterial activity against Pasteurella multocida assessed as susceptible isolates by CLSI M7-A7 broth microdilution method
# [26] = tested on: Streptococcus pyogenes; assay: Antibacterial activity against erythromycin-susceptible Streptococcus pyogenes assessed as susceptible isolates by CLSI M7-A7 broth microdilution method
# [27] = tested on: Morganella morganii; assay: Antibacterial activity against ceftazidime-susceptible Morganella morganii assessed as resistant isolates by CLSI M7-A7 broth microdilution method
# [28] = tested on: Streptococcus viridans; assay: Antibacterial activity against penicillin-susceptible Streptococcus viridans assessed as resistant isolates by CLSI M7-A7 broth microdilution method
# [29] = tested on: Streptococcus pneumoniae; assay: Antibacterial activity against penicillin-susceptible Streptococcus pneumoniae assessed as susceptible isolates by CLSI M7-A7 broth microdilution method
# [30] = tested on: Pasteurella multocida; assay: Antibacterial activity against Pasteurella multocida by CLSI M7-A7 broth microdilution method
# [31] = tested on: Streptococcus pyogenes; assay: Antibacterial activity against erythromycin-susceptible Streptococcus pyogenes by CLSI M7-A7 broth microdilution method
# [32] = tested on: Haemophilus influenzae; assay: Antibacterial activity against beta lactamase-negative Haemophilus influenzae by CLSI M7-A7 broth microdilution method
# [33] = tested on: Staphylococcus aureus; assay: Antibacterial activity against coagulase-negative and oxacillin-susceptible Staphylococcus aureus assessed as resistant isolates by CLSI M7-A7 broth microdilution method
# [34] = tested on: Klebsiella pneumoniae; assay: Antibacterial activity against ceftazidime-nonsusceptible Klebsiella pneumoniae assessed as resistant isolates by CLSI M7-A7 broth microdilution method
# [35] = tested on: Streptococcus pyogenes; assay: Antibacterial activity against erythromycin-nonsusceptible Streptococcus pyogenes assessed as susceptible isolates by CLSI M7-A7 broth microdilution method
# [36] = tested on: Haemophilus influenzae; assay: Antibacterial activity against beta lactamase-negative Haemophilus influenzae assessed as susceptible isolates by CLSI M7-A7 broth microdilution method
# [37] = tested on: Haemophilus influenzae; assay: Antibacterial activity against beta lactamase-positive Haemophilus influenzae by CLSI M7-A7 broth microdilution method
# [38] = tested on: Staphylococcus aureus; assay: Antibacterial activity against coagulase-negative and oxacillin-resistant Staphylococcus aureus by CLSI M7-A7 broth microdilution method
# [39] = tested on: Streptococcus agalactiae; assay: Antibacterial activity against erythromycin-nonsusceptible Streptococcus agalactiae assessed as susceptible isolates by CLSI M7-A7 broth microdilution method
# [40] = tested on: Citrobacter freundii; assay: Antibacterial activity against ceftazidime-susceptible Citrobacter freundii assessed as resistant isolates by CLSI M7-A7 broth microdilution method
# [41] = tested on: Streptococcus agalactiae; assay: Antibacterial activity against erythromycin-susceptible Streptococcus agalactiae assessed as susceptible isolates by CLSI M7-A7 broth microdilution method
# [42] = tested on: Streptococcus pneumoniae; assay: Antibacterial activity against penicillin-susceptible Streptococcus pneumoniae by CLSI M7-A7 broth microdilution method
# [43] = tested on: Streptococcus agalactiae; assay: Antibacterial activity against erythromycin-nonsusceptible Streptococcus agalactiae by CLSI M7-A7 broth microdilution method
# [44] = tested on: Morganella morganii; assay: Antibacterial activity against ceftazidime-susceptible Morganella morganii by CLSI M7-A7 broth microdilution method
smiles,measurement,setting,value
CO/N=C(\C(=O)N[C@@H]1C(=O)N2C(C(=O)O)=C(CSc3nc(=O)c(O)nn3C)CS[C@H]12)c1csc(N)n1 [CEFTRIAXONE],Activity,[1],33.1%
same,MIC50,[2],2 mg/L
same,MIC90,[2],8 mg/L
same,MIC50,[3],≤ 0.06 mg/L
same,MIC90,[3],0.12 mg/L
same,Activity,[4],98%
same,MIC50,[5],0.12 mg/L
same,MIC90,[5],1 mg/L
same,MIC50,[6],0.06 mg/L
same,MIC90,[6],0.25 mg/L
same,Activity,[7],6.1%
same,MIC50,[8],16 mg/L
same,MIC90,[8],> 32 mg/L
same,Activity,[9],0%
same,MIC,[10],≤ 0.06 mg/L
same,MIC50,[10],≤ 0.06 mg/L
same,MIC90,[10],0.12 mg/L
same,Activity,[11],13.2%
same,Activity,[12],0%
same,MIC50,[13],> 16 mg/L
same,MIC90,[13],> 16 mg/L
same,MIC50,[14],≤ 0.06 mg/L
same,MIC90,[14],0.25 mg/L
same,Activity,[15],98%
same,MIC,[16],≤ 0.06 mg/L
same,MIC50,[16],≤ 0.06 mg/L
same,MIC90,[16],2 mg/L
same,Activity,[17],0%
same,Activity,[18],44.7%
same,MIC50,[19],16 mg/L
same,MIC90,[19],> 16 mg/L
same,Activity,[20],100%
same,Activity,[21],0%
same,MIC,[22],> 16 mg/L
same,MIC50,[22],> 16 mg/L
same,MIC50,[23],> 16 mg/L
same,MIC90,[23],> 16 mg/L
same,Activity,[24],0%
same,Activity,[25],100%
same,Activity,[26],100%
same,Activity,[27],0%
same,Activity,[28],0%
same,Activity,[29],100%
same,MIC,[30],≤ 0.015 mg/L
same,MIC50,[30],≤ 0.015 mg/L
same,MIC90,[30],≤ 0.015 mg/L
same,MIC,[31],≤ 0.015 mg/L
same,MIC50,[31],≤ 0.015 mg/L
same,MIC90,[31],0.03 mg/L
same,MIC,[32],≤ 0.06 mg/L
same,MIC50,[32],≤ 0.06 mg/L
same,MIC90,[32],≤ 0.06 mg/L
same,Activity,[33],0%
same,Activity,[34],0%
same,Activity,[35],100%
same,Activity,[36],100%
same,MIC,[37],≤ 0.06 mg/L
same,MIC50,[37],≤ 0.06 mg/L
same,MIC90,[37],≤ 0.06 mg/L
same,MIC50,[38],16 mg/L
same,MIC90,[38],> 32 mg/L
same,Activity,[39],97.6%
same,Activity,[40],0%
same,Activity,[41],100%
same,MIC50,[42],0.03 mg/L
same,MIC90,[42],0.06 mg/L
same,MIC50,[43],0.06 mg/L
same,MIC90,[43],0.12 mg/L
same,MIC,[44],≤ 0.06 mg/L
same,MIC50,[44],≤ 0.06 mg/L
same,MIC90,[44],1 mg/L
C[C@@H](O)[C@H]1C(=O)N2C(C(=O)O)=C(SCCNC=N)C[C@H]12 [IMIPENEM ANHYDROUS],Activity,[1],13.5%
same,MIC50,[2],0.06 mg/L
same,MIC90,[2],1 mg/L
same,MIC50,[3],2 mg/L
same,MIC90,[3],4 mg/L
same,Activity,[4],100%
same,MIC50,[5],0.5 mg/L
same,MIC90,[5],0.5 mg/L
same,MIC,[6],≤ 0.015 mg/L
same,MIC50,[6],≤ 0.015 mg/L
same,MIC90,[6],0.06 mg/L
same,Activity,[7],100%
same,MIC50,[8],0.25 mg/L
same,MIC90,[8],> 16 mg/L
same,Activity,[9],0%
same,MIC,[10],0.12 mg/L
same,MIC50,[10],0.12 mg/L
same,MIC90,[10],0.5 mg/L
same,Activity,[11],92.3%
same,Activity,[12],0.5%
same,MIC50,[13],0.25 mg/L
same,MIC90,[13],0.25 mg/L
same,MIC50,[14],0.25 mg/L
same,MIC90,[14],1 mg/L
same,Activity,[15],100%
same,MIC50,[16],1 mg/L
same,MIC90,[16],2 mg/L
same,Activity,[17],0%
same,Activity,[18],100%
same,MIC50,[19],0.25 mg/L
same,MIC90,[19],0.5 mg/L
same,Activity,[21],0%
same,MIC50,[22],0.5 mg/L
same,MIC90,[22],32 mg/L
same,MIC50,[23],0.25 mg/L
same,MIC90,[23],4 mg/L
same,Activity,[24],0%
same,Activity,[27],0%
same,Activity,[29],96.5%
same,MIC50,[30],0.25 mg/L
same,MIC90,[30],2 mg/L
same,MIC,[31],≤ 0.015 mg/L
same,MIC50,[31],≤ 0.015 mg/L
same,MIC90,[31],≤ 0.015 mg/L
same,MIC50,[32],0.25 mg/L
same,MIC90,[32],0.5 mg/L
same,Activity,[33],0%
same,Activity,[34],10.6%
same,Activity,[36],100%
same,MIC50,[37],0.12 mg/L
same,MIC90,[37],0.5 mg/L
same,MIC50,[38],0.5 mg/L
same,MIC90,[38],16 mg/L
same,Activity,[40],0%
same,MIC,[42],≤ 0.015 mg/L
same,MIC50,[42],≤ 0.015 mg/L
same,MIC90,[42],≤ 0.015 mg/L
same,MIC,[43],≤ 0.015 mg/L
same,MIC50,[43],≤ 0.015 mg/L
same,MIC90,[43],0.03 mg/L
same,MIC50,[44],2 mg/L
same,MIC90,[44],2 mg/L
